Assay results published in ChEMBL document CHEMBL1156977, “Synthesis of new beta-1-C-alkylated imino-L-iditols: A comparative study of their activity as beta-glucocerebrosidase inhibitors” (Bioorg Med Chem, 2010).

Key:
[1] = target: T1, Lysosomal acid glucosylceramidase (Homo sapiens, UniProt P04062); test: Inhibition of human recombinant beta-glucocerebrosidase assessed as p-nitrophenolate accumulation preincubated for 10 mins before p-nitrophenyl-beta-d-glucopyranoside addition measured after 10 mins by […]
T1 sequence (P04062 whole entry): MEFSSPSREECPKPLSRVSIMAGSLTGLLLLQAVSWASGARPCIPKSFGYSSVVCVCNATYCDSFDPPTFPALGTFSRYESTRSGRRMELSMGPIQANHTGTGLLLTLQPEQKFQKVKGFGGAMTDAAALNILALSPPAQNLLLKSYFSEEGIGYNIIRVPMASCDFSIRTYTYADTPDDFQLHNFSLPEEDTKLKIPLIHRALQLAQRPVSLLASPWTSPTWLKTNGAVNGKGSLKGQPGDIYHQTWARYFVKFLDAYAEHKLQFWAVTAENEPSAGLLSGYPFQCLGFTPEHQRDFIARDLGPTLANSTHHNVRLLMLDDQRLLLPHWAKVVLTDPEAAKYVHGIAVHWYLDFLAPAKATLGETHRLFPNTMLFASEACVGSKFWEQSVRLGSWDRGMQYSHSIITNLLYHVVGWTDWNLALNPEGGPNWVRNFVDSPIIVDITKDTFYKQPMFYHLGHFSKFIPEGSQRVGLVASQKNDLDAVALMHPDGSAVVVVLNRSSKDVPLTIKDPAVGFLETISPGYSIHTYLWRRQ

[2] = target: T2, Lysosomal acid glucosylceramidase (Homo sapiens) (UniProt P04062); test: Inhibition of misfolded beta-glucocerebrosidase in human gaucher cells assessed as increase in enzyme activity at 10 nM; assay type: cell-based
T2 sequence (whole entry): T1 sequence (P04062 whole entry)

[3] = target: T2, Lysosomal acid glucosylceramidase (Homo sapiens); test: Inhibition of human recombinant beta-glucocerebrosidase assessed as p-nitrophenolate accumulation at 1000 uM preincubated for 10 mins before p-nitrophenyl-beta-d-glucopyranoside addition measured after 10 mins by […]

## CCCCCCCCC[C@H]1NC[C@@H](O)[C@H](O)[C@H]1O
[1]
  Ki: 0.0022 µM
[2]
  fold change (FC): 2

## CCC[C@H]1NC[C@@H](O)[C@H](O)[C@H]1O
[1]
  IC50: 0.56 µM

## CCCCCC[C@H]1N[C@@H](CO)[C@@H](O)[C@H](O)[C@H]1O
[1]
  IC50: 43 µM

## OCC(O)C[C@H]1N[C@@H](CO)[C@@H](O)[C@H](O)[C@H]1O (stereo partly drawn)
[3]
  inhibition: < 50%

## CCCCC1N[C@@H](CO)[C@@H](O)[C@H](O)[C@H]1O (single isomer, unassigned)
[1]
  IC50: 147 µM

## CCCC1N[C@@H](CO)[C@@H](O)[C@H](O)[C@H]1O (single isomer, unassigned)
[1]
  IC50: 487 µM

## CCCCCC[C@H]1NC[C@@H](O)[C@H](O)[C@H]1O
[1]
  IC50: 0.019 µM
